Earlier results, collected in patent publication US5086043A, “Production of Saponins of Lichi” (priority 1990, dated 1992).

Tests used:
capillary permeability = settings: mice; established in the prior art
[1] = system: carrageenin-induced swelling; settings: rats; established in the prior art

CC1(C)CC[C@]2(C(=O)O)CC[C@]3(C)C(=CC[C@@H]4[C@@]5(C)CC[C@H](O)C(C)(C)[C@@H]5CC[C@]43C)[C@@H]2C1 [oleanolic acid, Oleanolic acid]
capillary permeability (capillary permeability): inhibited capillary permeability in mice
carrageenin-induced swelling [1]: inhibited carrageenin-induced swelling in rats
